In ChEMBL document CHEMBL2440069, “Synthesis and biological evaluation of direct thrombin inhibitors bearing 4-(piperidin-1-yl)pyridine at the P1 position with potent anticoagulant activity” (J Med Chem, 2013):

Key:
Prothrombin [1] = target: Prothrombin (Bos taurus, UniProt P00735); assay: Inhibition of bovine thrombin using D-Phe-Pip-Arg-p-NA as substrate by chromogenic assay
Coagulation factor X = Coagulation factor X (Homo sapiens, UniProt P00742); assay: Inhibition of human factor 10a using Z-D-Arg-Gly-Arg-p-NA as substrate by chromogenic assay
[2] = 1-octanol-water partition coefficient, log D of the compound; type: physicochemical
[3] = 1-octanol-water partition coefficient, log P of the neutral form compound by HILIC analysis; type: physicochemical
[4] = Permeability of the compound at pH 6.8 by PAMPA assay; type: ADME
Plasma = assay: Anticoagulant activity in human plasma assessed as concentration required to double activated […] time; type: functional
Chymotrypsinogen A = Chymotrypsinogen A (Bos taurus, UniProt P00766); assay: Inhibition of bovine alpha-chymotrypsin using N-succinyl-Ala-Ala-Pro-Phe-p-NA as substrate by chromogenic assay
[5] = Dissociation constant, pKa of the compound by potentiometric titration; type: physicochemical
[6] = Inhibition of bovine pancreatic trypsin using D-Phe-Pip-Arg-p-NA as substrate by chromogenic assay; parameters: species or system Bos taurus
Neutrophil elastase = target: T1, Neutrophil elastase (Homo sapiens, UniProt P08246); assay: Inhibition of human neutrophil leukocyte elastase using N-(methoxysuccinyl)-Ala-Ala-Pro-Val-p-NA as substrate by chromogenic assay
T1 sequence (P08246 whole entry): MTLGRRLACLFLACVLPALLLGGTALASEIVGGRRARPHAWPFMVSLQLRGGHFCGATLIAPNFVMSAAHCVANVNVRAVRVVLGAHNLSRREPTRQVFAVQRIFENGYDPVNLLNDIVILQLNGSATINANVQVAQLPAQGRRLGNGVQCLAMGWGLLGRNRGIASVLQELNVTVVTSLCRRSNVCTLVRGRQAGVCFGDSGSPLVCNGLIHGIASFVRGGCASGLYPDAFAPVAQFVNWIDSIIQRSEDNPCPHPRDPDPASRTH

Prothrombin [7] = target: Prothrombin (Homo sapiens, UniProt P00734); assay: Inhibition of human thrombin using D-Phe-Pip-Arg-p-NA as substrate by chromogenic assay
Coagulation factor VII = target: T2, Coagulation factor VII (Homo sapiens, UniProt P08709); assay: Inhibition of human recombinant factor 7a using spectrozyme as substrate by chromogenic assay
T2 sequence (P08709 whole entry): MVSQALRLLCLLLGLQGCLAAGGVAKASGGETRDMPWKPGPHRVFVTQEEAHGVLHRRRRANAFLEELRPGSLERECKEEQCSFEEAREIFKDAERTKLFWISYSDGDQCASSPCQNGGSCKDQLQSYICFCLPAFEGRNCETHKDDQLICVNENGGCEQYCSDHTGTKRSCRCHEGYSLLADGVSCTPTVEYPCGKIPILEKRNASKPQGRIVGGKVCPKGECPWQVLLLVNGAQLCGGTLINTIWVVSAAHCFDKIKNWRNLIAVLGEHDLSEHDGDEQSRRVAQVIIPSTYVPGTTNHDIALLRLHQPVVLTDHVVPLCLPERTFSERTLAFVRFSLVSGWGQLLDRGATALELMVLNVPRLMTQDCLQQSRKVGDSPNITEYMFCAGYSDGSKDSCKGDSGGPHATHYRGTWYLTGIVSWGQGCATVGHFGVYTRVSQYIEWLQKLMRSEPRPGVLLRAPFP

Mus musculus [8] = assay: Ex vivo anticoagulant activity in CD1 mouse plasma assessed as activated partial thromboplastin time at 100 mg/kg, po after 1 hr; type: functional
Mus musculus [9] = assay: Ex vivo anticoagulant activity in CD1 mouse plasma assessed as activated partial thromboplastin time at 100 mg/kg, po after 2 hrs; type: functional
[10] = Permeability of the compound at pH 8 by PAMPA assay; type: ADME

Chain of Coagulation factor X (P00742 41-179 limits assumed): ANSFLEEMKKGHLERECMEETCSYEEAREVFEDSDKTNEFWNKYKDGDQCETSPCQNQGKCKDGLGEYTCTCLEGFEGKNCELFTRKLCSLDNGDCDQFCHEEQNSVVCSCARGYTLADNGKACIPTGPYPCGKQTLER
Chain of Coagulation factor X (P00742 235-488 limits assumed): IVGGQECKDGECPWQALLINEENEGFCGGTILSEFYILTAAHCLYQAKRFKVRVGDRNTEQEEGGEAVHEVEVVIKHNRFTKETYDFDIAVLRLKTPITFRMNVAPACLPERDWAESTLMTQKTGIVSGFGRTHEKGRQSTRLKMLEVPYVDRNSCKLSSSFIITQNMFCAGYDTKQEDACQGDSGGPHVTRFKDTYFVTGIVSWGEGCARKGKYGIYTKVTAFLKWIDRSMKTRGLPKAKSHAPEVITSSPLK

| SMILES | Ki (Prothrombin [1]; read-out: Ki) | Ki (Coagulation factor X) | pKa [5] | further results |
| --- | --- | --- | --- | --- |
| O=C(Nc1ccccc1OCc1cccc(F)c1)C1CCN(c2ccncc2)CC1 | > 250 µM | > 250 µM | – | – |
| Fc1cccc(COc2cccc(NCC3CCN(c4ccncc4)CC3)c2)c1 | > 250 µM | 3.83 µM | – | – |
| O=C(Nc1cccc(CCc2cccc(F)c2)c1)C1CCN(c2ccncc2)CC1 | 12.4 µM | 44.1 µM | – | logD [2]: 3.58; Ki (Prothrombin [1]; read-out: pKi (converted)): 12.3 µM |
| O=C(Nc1cccc(COc2cccc(F)c2)c1)C1CCN(c2ccncc2)CC1 | 18.2 µM | > 250 µM | – | logD [2]: 3.02 |
| O=C(Nc1cccc(OCCc2cccc(F)c2)c1)C1CCN(c2ccncc2)CC1 | 0.488 µM | 2.14 µM | – | Ki (Prothrombin [1]; read-out: pKi (converted)): 18.2 µM |
| CN(C(=O)C1CCN(c2ccncc2)CC1)c1cccc(OCc2cccc(F)c2)c1 | > 250 µM | 23.6 µM | – | – |
| O=C(Nc1cccc(OCc2ccc3c(c2)OCO3)c1)C1CCN(c2ccncc2)CC1 | 0.053 µM | 3.72 µM | 9.1 | logP [3]: 4.9; log Pe [4]: impermeable; 2aPTT (Plasma): >200 µM; Ki (Chymotrypsinogen A): > 250 µM |
| COc1cc(COc2cccc(NC(=O)C3CCN(c4ccncc4)CC3)c2)cc(OC)c1 | 0.083 µM | 126 µM | 8.9 | logP [3]: 4.9; 2aPTT (Plasma): 200 µM; Ki (Chymotrypsinogen A): 33.8 µM |
| COc1ccc(COc2cccc(NC(=O)C3CCN(c4ccncc4)CC3)c2)cc1OC | 0.031 µM | 0.606 µM | 9.2 | Ki [6]: 27 µM; Ki (Neutrophil elastase): > 250 µM; logP [3]: 4.9; Ki (Prothrombin [7]): 0.755 µM; 2aPTT (Plasma): 154 µM; Ki (Chymotrypsinogen A): 71.5 µM; Ki (Coagulation factor VII): > 250 µM |
| COc1cccc(COc2cccc(NC(=O)C3CCN(c4ccncc4)CC3)c2)c1 | 1.15 µM | 7.23 µM | – | – |
| COc1ccccc1COc1cccc(NC(=O)C2CCN(c3ccncc3)CC2)c1 | 1.3 µM | 16.4 µM | – | – |
| CS(=O)(=O)c1cccc(COc2cccc(NC(=O)C3CCN(c4ccncc4)CC3)c2)c1 | 15.9 µM | 15.6 µM | – | – |
| CS(=O)(=O)c1ccccc1COc1cccc(NC(=O)C2CCN(c3ccncc3)CC2)c1 | 12.3 µM | 35.1 µM | – | – |
| O=C(Nc1cccc(OCc2cccc([N+](=O)[O-])c2)c1)C1CCN(c2ccncc2)CC1 | 26.8 µM | 6.73 µM | – | – |
| O=C(Nc1cccc(OCc2cc(F)cc(F)c2)c1)C1CCN(c2ccncc2)CC1 | 0.063 µM | 27 µM | 9.2 | Ki [6]: > 250 µM; Ki (Neutrophil elastase): > 250 µM; logP [3]: 5.2; Ki (Prothrombin [7]): 0.031 µM; 2aPTT (Plasma): 26.3 µM; Ki (Chymotrypsinogen A): 31.4 µM; Ki (Coagulation factor VII): > 250 µM |
| O=C(Nc1cccc(OCc2ccc(F)cc2F)c1)C1CCN(c2ccncc2)CC1 | 4.64 µM | 8.8 µM | – | – |
| Nc1ccc(N2CCC(C(=O)Nc3cccc(OCc4ccc(F)cc4)c3)CC2)cc1 | > 250 µM | 63.5 µM | 3 | – |
| O=C(Nc1cccc(OCc2ccc(F)cc2)c1)C1CCN(c2ccccn2)CC1 | > 250 µM | 78 µM | 8.5 | – |
| O=C(Nc1cccc(OCc2ccc(F)cc2)c1)C1CCN(c2ncccn2)CC1 | 26.8 µM | 91.6 µM | 6 | log Pe [10]: impermeable; log Pe [4]: impermeable |
| CC(C)N1CCC(C(=O)Nc2cccc(OCc3ccc(F)cc3)c2)CC1 | > 250 µM | > 250 µM | 9.4 | – |
| O=C(Nc1cccc(OCc2ccc(F)cc2)c1)C1CCN(Cc2ccncc2)CC1 | 15.3 µM | 47.1 µM | 3.3 | log Pe [10]: impermeable; log Pe [4]: impermeable |
| CC(=N)N1CCC(C(=O)Nc2cccc(OCc3ccc(F)cc3)c2)CC1 | > 250 µM | 57.3 µM | – | – |
| O=C(Nc1cccc(OCc2ccc(F)cc2)c1)C1CCNCC1 | – | – | 9.8 | – |

Continued, in another order:

| Ki (Prothrombin [1]; read-out: Ki) | Ki (Coagulation factor X) | pKa [5] | SMILES | further results |
| --- | --- | --- | --- | --- |
| 2.03 µM | 11.1 µM | – | COc1ccc(COc2cccc(NC(=O)C3CCN(c4ccncc4)CC3)c2)cc1 | – |
| 8.19 µM | 12.2 µM | – | CN(C)Cc1ccc(COc2cccc(NC(=O)C3CCN(c4ccncc4)CC3)c2)cc1 | – |
| 13.3 µM | 36.1 µM | – | Nc1cccc(COc2cccc(NC(=O)C3CCN(c4ccncc4)CC3)c2)c1 | – |
| 10 µM | 25 µM | – | Nc1ccc(COc2cccc(NC(=O)C3CCN(c4ccncc4)CC3)c2)cc1 | – |
| 3.4 µM | 48.5 µM | – | O=C(Nc1cccc(OCc2ccc(C(F)(F)F)cc2)c1)C1CCN(c2ccncc2)CC1 | – |
| 0.124 µM | 7.73 µM | 9.1 | CS(=O)(=O)c1ccc(COc2cccc(NC(=O)C3CCN(c4ccncc4)CC3)c2)cc1 | logP [3]: 4.9; 2aPTT (Plasma): 98.2 µM; Ki (Chymotrypsinogen A): > 250 µM |
| 5.85 µM | 6 µM | – | O=C(Nc1cccc(OCc2ccc([N+](=O)[O-])cc2)c1)C1CCN(c2ccncc2)CC1 | – |
| 20.9 µM | 6.31 µM | – | O=C(Nc1cccc(OCc2cccc(Br)c2)c1)C1CCN(c2ccncc2)CC1 | – |
| 2.03 µM | 37.1 µM | – | O=C(Nc1cccc(OCc2ccc(Br)cc2)c1)C1CCN(c2ccncc2)CC1 | – |
| 0.26 µM | 29.6 µM | – | O=C(Nc1cccc(OCc2ccc(Cl)cc2)c1)C1CCN(c2ccncc2)CC1 | – |
| 0.156 µM | > 250 µM | – | O=C(Nc1cccc(OCc2cccc(Cl)c2)c1)C1CCN(c2ccncc2)CC1 | – |
| 0.064 µM | 6.83 µM | 9.2 | O=C(Nc1cccc(OCc2ccccc2F)c1)C1CCN(c2ccncc2)CC1 | Ki [6]: 27 µM; Ki (Neutrophil elastase): > 250 µM; logP [3]: 4.9; Ki (Prothrombin [7]): 0.09 µM; 2aPTT (Plasma): 19.8 µM; Ki (Chymotrypsinogen A): 71.6 µM; Ki (Coagulation factor VII): > 250 µM |
| 0.006 µM | – | 9 | O=C(Nc1cccc(OCc2cccc(F)c2)c1)C1CCN(c2ccncc2)CC1 | Activity (Mus musculus [8]): 36%; logD [2]: 3.14; Activity (Mus musculus [9]): 43%; Ki [6]: > 250 µM; Ki (Neutrophil elastase): 11.3 µM; logP [3]: 5; Ki (Prothrombin [7]): 0.016 µM; 2aPTT (Plasma): 6.6 µM; Ki (Chymotrypsinogen A): 6.6 µM; Ki (Coagulation factor VII): > 250 µM |
| – | – | 8.9 | O=C(Nc1cccc(OCc2ccc(F)cc2)c1)C1CCN(c2ccncc2)CC1 | Ki [6]: > 250 µM; Ki (Neutrophil elastase): 68.7 µM; logP [3]: 5.1; Ki (Prothrombin [7]): 0.014 µM; 2aPTT (Plasma): 59 µM; Ki (Chymotrypsinogen A): 71.6 µM; Ki (Coagulation factor VII): > 250 µM |
| 39.5 µM | 7.46 µM | – | O=C(Nc1cccc(OCc2ccccc2)c1)C1CCN(c2ccncc2)CC1 | – |
